Data published in PMC6934184, “Selective DNA-PKcs inhibition extends the therapeutic index of localized radiotherapy and chemotherapy” (The Journal of Clinical Investigation, 2019).

Target: T1, ERBB4 (HER4) (Homo sapiens, UniProt Q15303)
T1 construct: purchased Thermo Fisher Scientific (Life Technologies) SelectScreen
Assay: SelectScreen Z'LYTE
Type: biochemical
In short: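 NU5455 was profiled across the SelectScreen Broad panel of kinase activity and binding assays. Z'LYTE reactions such as CSF1R ran at apparent Km ATP, while the Adapta CAMK1 assay used ATP listed as 10. Values are given as percent.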

T1 sequence (Q15303 26-1308): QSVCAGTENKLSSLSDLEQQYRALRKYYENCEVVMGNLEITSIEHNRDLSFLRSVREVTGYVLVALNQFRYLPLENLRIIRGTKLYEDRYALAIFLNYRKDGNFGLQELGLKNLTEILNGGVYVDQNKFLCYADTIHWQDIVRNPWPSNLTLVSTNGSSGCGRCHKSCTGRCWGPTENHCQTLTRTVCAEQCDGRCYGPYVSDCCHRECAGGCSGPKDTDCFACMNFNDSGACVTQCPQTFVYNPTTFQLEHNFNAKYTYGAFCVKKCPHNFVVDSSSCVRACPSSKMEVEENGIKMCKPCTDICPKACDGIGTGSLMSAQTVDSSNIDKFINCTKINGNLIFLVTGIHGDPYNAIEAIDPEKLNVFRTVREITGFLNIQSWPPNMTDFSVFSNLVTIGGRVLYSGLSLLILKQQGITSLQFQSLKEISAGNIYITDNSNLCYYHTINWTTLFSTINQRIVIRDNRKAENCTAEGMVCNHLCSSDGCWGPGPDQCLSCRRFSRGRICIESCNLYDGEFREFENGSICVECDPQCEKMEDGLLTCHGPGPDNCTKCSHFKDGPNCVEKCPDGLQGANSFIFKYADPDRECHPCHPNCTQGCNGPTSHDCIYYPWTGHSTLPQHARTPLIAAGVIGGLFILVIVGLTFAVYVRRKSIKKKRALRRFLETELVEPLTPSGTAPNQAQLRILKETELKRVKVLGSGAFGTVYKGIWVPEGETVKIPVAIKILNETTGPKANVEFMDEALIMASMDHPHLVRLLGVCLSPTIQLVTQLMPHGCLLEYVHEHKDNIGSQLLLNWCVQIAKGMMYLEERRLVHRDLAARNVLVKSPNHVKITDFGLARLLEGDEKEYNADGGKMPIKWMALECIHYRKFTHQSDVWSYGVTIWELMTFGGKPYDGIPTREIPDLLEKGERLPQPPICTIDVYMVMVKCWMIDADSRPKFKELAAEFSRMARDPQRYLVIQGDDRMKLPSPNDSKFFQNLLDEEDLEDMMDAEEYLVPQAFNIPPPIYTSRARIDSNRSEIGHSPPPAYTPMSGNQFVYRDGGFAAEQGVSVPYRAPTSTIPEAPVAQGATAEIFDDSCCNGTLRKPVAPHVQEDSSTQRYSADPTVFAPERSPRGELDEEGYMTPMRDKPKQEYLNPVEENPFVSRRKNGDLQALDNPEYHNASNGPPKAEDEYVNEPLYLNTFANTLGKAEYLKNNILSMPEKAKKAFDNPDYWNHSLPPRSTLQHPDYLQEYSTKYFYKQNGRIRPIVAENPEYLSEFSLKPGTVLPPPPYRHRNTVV

## CN(C(=O)CN1CCOCC1)c1ccc2sc3c(-c4cccc5c(=O)cc(N6CC7CCC(C6)O7)oc45)cccc3c2c1 [NU5455]
  inhibition at 1 µM: -2.8%
